The values below come from US8916599B2, “1H-benz imidazole-5-carboxamides as anti-inflammatory agents” (Orexo AB, priority 2008, dated 2014).

Molecules are shown by their SMILES.

The target in one experiment is T1, recombinant human mPGES-1 (Homo sapiens, UniProt O14684).
T1 construct: made in house; host or cells: Rosetta E. coli (microsomal/membrane fraction)
T1 sequence (O14684 1-152): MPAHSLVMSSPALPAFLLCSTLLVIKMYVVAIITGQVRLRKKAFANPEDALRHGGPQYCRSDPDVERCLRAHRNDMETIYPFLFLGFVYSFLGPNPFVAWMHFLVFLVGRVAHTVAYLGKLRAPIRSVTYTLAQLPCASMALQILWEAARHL
Nature of the experiment: mPGES-1 inhibition test (microsomes, PGH2 substrate, HTRF detection of PGE2). Format: biochemical.
Conditions: not given
How it is done:
Microsomes from Rosetta E. coli bacteria expressing recombinant human mPGES-1 is dissolved in 0.1 M KPi pH 7.4 buffer containing 2.5 mM GSH. 50 μl of the enzyme is subsequently dispensed in a 384-well plate. 0.5 μl of the inhibitor dissolved in DMSO at is thereafter added to each well and incubated for 25 minutes at room temperature. Subsequently, 2 μl of PGH2 dissolved in an appropriate solvent is added to each well and after one minute the acidified stop solution containing FeCl2 is added. 4 μl of the total volume is transferred to a separate plate and diluted 750-fold in two separate steps before HTRF detection of PGE2.
The HTRf detection is performed by the use of a commercially available kit from CisBio essentially according to the manufacturer's protocol. Briefly, 10 μl of the diluted sample is transferred to a white 384-well plate. 5 μl of d2 and 5 μl Eu3+-Cryptate labeled anti-PGE2 is added to each well containing samples by the use of a Multidrop. The plate is covered with a plastic self-adhesive film, centrifuged at 1200 rpm for 1 minute and subsequently stored at +4° C. over night.
After over night incubation the fluorescence is measured by the use of an appropriate microplate reader. The fluorescence of europium cryptate, and d2 are measured using the following excitation and emission wavelength, europium cryptate: λmax^ex=307 nm, λmax^em=620 nm and d2: λmax^ex=620 nm, λmax^em=665 nm), respectively. The extent of the specific FRET is measured as a ratio of the emission intensity at 665 nm vs. that at 620 nm. A standard curve using synthetic PGE2 is used to quantify the amount of PGE2 in unknown samples.
As to `COc1cc2[nH]c(Nc3c(Cl)cccc3Cl)nc2cc1C(=O)NCC(F)(F)C(F)(F)C(F)(F)F` [Example 632, N-(2,2,3,3,4,4,4-heptafluoro-butyl)-2-(2,6-dichlorophenylamino)-6-methoxy-1H-benzimidazole-5-carboxamide], the inhibition at 10 µM stood at 99%.

Staying with this experiment, now noted: inhibition of mPGES-1 at 10 μM.
`O=C(Nc1ccc(C(F)(F)F)cn1)c1ccc2[nH]c(Nc3c(Cl)cccc3Cl)nc2c1` [Example 191, 2-(2,6-Dichloro-phenylamino)-1H-benzimidazole-5-carboxylic acid (5-trifluoromethyl-pyridin-2-yl)-amide]: the inhibition at 10 µM is 99%.

Turning to `O=C(N[C@H]1CC[C@H](C(F)(F)F)CC1)c1cc2nc(Nc3c(Cl)ccc(Cl)c3F)[nH]c2cc1F` [Example 597, 2-(3,6-Dichloro-2-fluoro-phenylamino)-N-(trans-4-trifluoromethyl-cyclohex-1-yl)-6-fluoro-1H-benzimidazole-5-carboxamide], the inhibition at 10 µM was 100%.

For the molecule `O=C(NC1CCCCCC1)c1ccc2[nH]c(Nc3c(Cl)cccc3Cl)nc2c1` [Example 214, 2-(2,6-Dichloro-phenylamino)-1H-benzimidazole-5-carboxylic acid cycloheptyl-amide], the inhibition at 10 µM came to 100%.

On to `COc1cc2[nH]c(Nc3c(Cl)cccc3Cl)nc2cc1C(=O)NCc1ncccc1Cl` [Example 630], for which the inhibition at 10 µM amounted to 100%.

As to `Cc1cc(NC(=O)c2ccc3nc(Nc4c(Cl)cccc4Cl)[nH]c3c2)cc(Cl)n1` [Example 198, 2-(2,6-Dichloro-phenylamino)-3H-benzimidazole-5-carboxylic acid (2-chloro-6-methyl-pyridin-4-yl)-amide], the inhibition at 10 µM came to 100%.

For the molecule `O=C(N[C@H]1CC[C@H](C(F)(F)F)CC1)c1cc2nc(Nc3c(Cl)cc(F)cc3Cl)[nH]c2cc1OCCF` [Example 584, 2-(2,6-Dichloro-4-fluoro-phenylamino)-N-(trans-4-trifluoro-cyclohex-1-yl)-6-(2-fluoroethoxy)-1H-benzimidazole-5-carboxamide], the inhibition at 10 µM was found to be 96%.

With `COc1cc2c(cc1C(=O)NCc1ncccc1C)nc(Nc1c(Cl)cccc1Cl)n2C` [Example 465, 2-(2,6-Dichlorophenylamino)-6-methoxy-1-methyl-N-((3-methylpyridin-2-yl)methyl)-1H-benzimidazole-5-carboxamide], the inhibition at 10 µM worked out at 100%.

On to `Cc1ccc(NC(=O)c2ccc3[nH]c(Nc4c(Cl)cccc4Cl)nc3c2)cc1` [Example 5, 2-(2,6-Dichloro-phenylamino)-1H-benzimidazole-5-carboxylic acid p-tolylamide], for which the inhibition at 10 µM turned out to be 100%.

Take `Cn1c(Nc2c(Cl)cccc2Cl)nc2cc(C(=O)NC3CC(C)(C)C3)c(F)cc21` [Example 447, 2-(2,6-Dichlorophenylamino)-N-(3,3-dimethylcyclobutyl)-6-fluoro-1-methyl-1H-benzimidazole-5-carboxamide]: the inhibition at 10 µM was found to be 99%.

Take `Cc1ccccc1Nc1nc2cc(C(=O)Nc3ccccc3)ccc2[nH]1` [Example 10, 2-(o-Tolyl-amino)-1H-benzimidazole-5-carboxylic acid-phenylamide]: the inhibition at 10 µM was 98%.

For `O=C(NCCc1ccncc1)c1ccc2[nH]c(Nc3c(Cl)cccc3Cl)nc2c1` [Example 233, 2-(2,6-Dichloro-phenylamino)-1H-benzimidazole-5-carboxylic acid (2-pyridin-4-yl-ethyl)-amide], the inhibition at 10 µM was found to be 67%.

With `Cn1c(Nc2c(Cl)cccc2Cl)nc2cc(C(=O)Nc3ccc(Br)cc3)c(F)cc21` [Example 167, 2-(2,6-Dichloro-phenylamino)-6-fluoro-1-methyl-1H-benzimidazole-5-carboxylic acid (4-bromo-phenyl)-amide], the inhibition at 10 µM was found to be 93%.

Turning to `O=C(Nc1ccc(Cl)c(Cl)c1Cl)c1ccc2[nH]c(Nc3c(Cl)cccc3Cl)nc2c1` [Example 312, 2-(2,6-Dichloro-phenylamino)-1H-benzimidazole-5-carboxylic acid (2,3,4-trichloro-phenyl)-amide], the inhibition at 10 µM is 100%.

For the molecule `CCNC(=O)c1cc(Br)c2c(c1)nc(Nc1c(Cl)cccc1Cl)n2C` [Example 352, 7-Bromo-2-(2,6-dichloro-phenylamino)-1-methyl-1H-benzimidazole-5-carboxylic acid ethylamide], the inhibition at 10 µM was 71%.

As to `Cn1c(Nc2c(Cl)cccc2Cl)nc2cc(C(=O)Nc3ccc(S(C)(=O)=O)cc3)ccc21` [Example 250, 2-(2,6-Dichloro-phenylamino)-1-methyl-1H-benzimidazole-5-carboxylic acid (4-methanesulfonyl-phenyl)-amide], the inhibition at 10 µM was determined as 73%.

In the case of `O=C(NCc1ccc(Cl)cc1)c1ccc2[nH]c(Nc3c(Cl)cccc3Cl)nc2c1` [Example 309, 2-(2,6-Dichloro-phenylamino)-1H-benzimidazole-5-carboxylic acid 4-chloro-benzylamide], the inhibition at 10 µM is 98%.

As to `C[C@@H]1CCC(NC(=O)c2cc3nc(Nc4c(Cl)cccc4Cl)n(C)c3cc2F)C1` (stereo partly drawn) [Example 175, 2-(2,6-Dichloro-phenylamino)-6-fluoro-1-methyl-1H-benzimidazole-5-carboxylic acid ((3R)-3-methyl-cyclopentyl)-amide], the inhibition at 10 µM was 100%.

As to `Cn1c(Nc2c(Cl)cccc2Cl)nc2cc(C(=O)NCc3ncccc3F)c(F)cc21` [Example 536, 2-(2,6-Dichlorophenylamino)-6-fluoro-N-((3-fluoropyridin-2-yl)methyl)-1-methyl-1H-benzimidazole-5-carboxamide], the inhibition at 10 µM came to 89%.

For the molecule `Cn1c(Nc2c(Cl)cccc2Cl)nc2cc(C(=O)Nc3ccccc3)ccc21` [Example 20, 2-(2,6-Dichloro-phenylamino)-1-methyl-1H-benzimidazole-5-carboxylic acid phenylamide], the inhibition at 10 µM came out at 97%.

As to `CC(C)Oc1cc2[nH]c(Nc3c(Cl)ccc(Cl)c3F)nc2cc1C(=O)NC1CCC(C(F)(F)F)CC1` (stereo not drawn) [Example 620, 2-(3,6-Dichloro-2-fluoro-phenylamino)-6-isopropoxy-N-(4-trans-trifluoromethyl-cyclohex-1-yl)-1H-benzimidazole-5-carboxamide], the inhibition at 10 µM is 100%.

On to `Cc1cc2[nH]c(Nc3c(Cl)cccc3Cl)nc2cc1C(=O)Nc1ccc(Cl)c(F)c1` [Example 145, 2-(2,6-Dichloro-phenylamino)-6-methyl-1H-benzimidazole-5-carboxylic acid (4-chloro-3-fluorophenyl)-amide], for which the inhibition at 10 µM came out at 100%.

As to `O=C(Nc1nc2c(s1)CCCC2)c1ccc2[nH]c(Nc3c(Cl)cccc3Cl)nc2c1` [Example 79, 2-(2,6-Dichloro-phenylamino)-1H-benzimidazole-5-carboxylic acid (4,5,6,7-tetrahydro-benzothiazol-2-yl)-amide], the inhibition at 10 µM amounted to 100%.

With `O=C(NCc1cc(C(F)(F)F)ccn1)c1ccc2[nH]c(Nc3c(Cl)cccc3Cl)nc2c1` [Example 221, 2-(2,6-Dichloro-phenylamino)-1H-benzimidazole-5-carboxylic acid (4-trifluoromethyl-pyridin-2-ylmethyl)-amide], the inhibition at 10 µM turned out to be 87%.

On to `Cn1c(Nc2ccc(F)cc2C(F)(F)F)nc2cc(C(=O)Nc3ccc(Br)cc3)ccc21` [Example 385, N-(4-Bromophenyl)-2-(4-fluoro-2-trifluoromethyl-phenylamino)-1-methyl-1H-benzimidazole-5-carboxamide], for which the inhibition at 10 µM was 99%.
